Test results: PMC8187479, “Sugar phosphate activation of the stress sensor eIF2B” (Nature Communications, 2021)
Peptide text beside a SMILES is read from it.

The molecules below were run against T1, eIF2Bα (Homo sapiens, UniProt Q14232) (assay: MIDAS (mass spectrometry integrated with equilibrium dialysis) metabolite binding screen). Conditions: MIDAS metabolite binding screen with eIF2Bα; sheet "eIF2Ba".
T1 construct: made in house; host or cells: E. coli BL21(DE3)
T1 sequence (Q14232 1-305): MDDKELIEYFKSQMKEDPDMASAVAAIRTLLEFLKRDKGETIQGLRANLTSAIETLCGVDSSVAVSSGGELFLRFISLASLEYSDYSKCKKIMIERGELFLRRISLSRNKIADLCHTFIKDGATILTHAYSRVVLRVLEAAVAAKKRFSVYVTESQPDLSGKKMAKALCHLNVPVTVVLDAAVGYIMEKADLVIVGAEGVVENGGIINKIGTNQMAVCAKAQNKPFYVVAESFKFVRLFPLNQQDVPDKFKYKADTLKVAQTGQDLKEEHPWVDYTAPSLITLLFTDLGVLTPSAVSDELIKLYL
Procedure, shortened: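 Hits called at Storey q < 0.1 on z-scores of PCA-corrected log2 fold change between protein and metabolite chambers, quantified by FIA-MS in triplicate.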

Point of comparison: `CC(C)C(=O)C(=O)O` [3-methyl-2-oxobutyrate], “log2(corrected fold change)” value -0.0499. Against it:
- OCC(O)COC1OC(CO)C(O)C(O)C1O (stereo not shown) [2,3-Dihydroxypropyl hexopyranoside] — within 0.2 log units, 0.03531
- OC[C@H]1OC(O)[C@H](O)[C@@H](O)[C@@H]1O (stereo partly drawn) [D-Glucose] — within 0.2 log units, -0.01874
- C[S+](CC[C@H](N)C(=O)O)C[C@H]1O[C@@H](n2cnc3c(N)ncnc32)[C@H](O)[C@@H]1O (stereo partly drawn) [S-(5-Adenosyl)-L-methionine] — within 0.2 log units, 0.006892
- O=c1ccn([C@@H]2O[C@H](COP(=O)(O)OP(=O)(O)OP(=O)(O)O)[C@@H](O)[C@H]2O)c(=O)[nH]1 [Uridine 5-triphosphate] — within 0.2 log units, -0.0457
- C[N+](C)(C)CCOP(=O)([O-])OC[C@H](O)CO [L-alpha-Glycerophosphorylcholine] — higher, 0.1951
- O=C(CO)[C@@H](O)[C@H](O)[C@H](O)[C@H](O)COP(=O)(O)O [D-Sedoheptulose 7-phosphate] — within 0.2 log units, -0.01312
- O=C[C@H](O)[C@H](O)[C@H](O)CO [D-Ribose] — within 0.2 log units, -0.0769
- O=C1OC(C(O)CO)C(=O)C1=O (stereo not shown) [Dehydroascorbic acid] — within 0.2 log units, 0.003317
- Nc1ncnc2c1ncn2C1CC(O)C(CO)O1 (stereo not shown) [2-Deoxyadenosine] — higher, 0.4061
- O=C(O)CC(C(=O)O)C(O)C(=O)O (racemic) [DL-Isocitric acid] — within 0.2 log units, -0.01609
- Cc1ncc(CO)c(C(=O)O)c1O [4-Pyridoxic acid] — within 0.2 log units, 0.06772
- O=C(O)[C@H](O)[C@@H](O)[C@H](O)[C@H](O)CO [D-Gluconic acid] — within 0.2 log units, -0.01138
- CC(=O)N[C@@H](CCC(=O)O)C(=O)O [N-Acetyl-L-glutamic acid] — within 0.2 log units, 0.006675
- O=C1O[C@H]([C@@H](O)CO)[C@H](O)[C@@H]1O [L-Gulonic acid gamma-lactone] — within 0.2 log units, 0.02733
- CC(C)(CO[P@@](=O)(O)O[P@@](=O)(O)OC[C@H]1O[C@@H](n2cnc3c(N)ncnc32)[C@H](O)[C@@H]1OP(=O)(O)O)[C@@H](O)C(=O)NCCC(=O)NCCSC(=O)CC(=O)O [Malonyl coenzyme A] — within 0.2 log units, -0.02331
- N[C@@H](C[C@@H](O)C(=O)O)C(=O)O [(4R)-4-Hydroxy-L-glutamic acid] — within 0.2 log units, -0.03114
- C[C@@H](O)C=O [D-Lactaldehyde] — within 0.2 log units, -0.01671
- NCCC(=O)O [Beta-alanine] — within 0.2 log units, 0.0004222
- O=C1O[C@H]2[C@H](OC(O)[C@@H]2O)[C@@H]1O (stereo partly drawn) [D-Glucurono-6,3-lactone] — within 0.2 log units, 0.01187
- CC(=O)CC(=O)CCC(=O)O [4,6-Dioxoheptanoic acid] — within 0.2 log units, -0.02657
- N[C@@H](CCCCNC(=O)CCCC[C@@H]1SC[C@@H]2NC(=O)N[C@@H]21)C(=O)O [Biocytin] — within 0.2 log units, -0.00281
- O=c1ccn([C@@H]2O[C@H](CO)[C@@H](O)[C@H]2O)c(=O)[nH]1 [Uridine] — within 0.2 log units, 0.009821
- CNC[C@H](O)c1ccc(O)c(O)c1 [Epinephrine] — within 0.2 log units, -0.04113
- CC[C@H](C)[C@H](N)C(=O)O [L-Isoleucine] — within 0.2 log units, -0.00688
- Nc1ccn([C@H]2C[C@H](O)[C@@H](COP(=O)(O)OP(=O)(O)O)O2)c(=O)n1 [2-Deoxycytidine 5-diphosphate] — within 0.2 log units, 0.01712
- Nc1ccn([C@@H]2O[C@H](COP(=O)(O)OP(=O)(O)O)[C@@H](O)[C@H]2O)c(=O)n1 [Cytidine 5-diphosphate] — within 0.2 log units, 0.02612
- NCCS [Cysteamine] — within 0.2 log units, 0.01963
- Cc1cn([C@H]2C[C@H](O)[C@@H](COP(=O)(O)O)O2)c(=O)[nH]c1=O [Thymidine monophosphate] — within 0.2 log units, -0.007923
- O=C(O)CC[C@@H](O)C(=O)O [D-Hydroxyglutaric acid] — within 0.2 log units, -0.0058
- Nc1nc2c(ncn2[C@@H]2O[C@@H]3COP(=O)(O)O[C@H]3[C@H]2O)c(=O)[nH]1 [Cyclic GMP] — within 0.2 log units, 0.01224
- O=C1O[C@H]([C@@H](O)CO)C(O)=C1O [Ascorbate] — within 0.2 log units, 0.01654
- O=C(O)CCC(=O)O [Succinic acid] — within 0.2 log units, -0.05121

Same assay, conditions: MIDAS screen, sheet eIF2Ba; metabolites screened in pools 1-4; p-value and q-value given

Point of comparison: `CC(CNC(N)=O)C(=O)O` (racemic) [DL-3-Ureidoisobutyric acid], “log2(corrected fold change)” value 0.1976. Against it:
- CC(CN)C(=O)O (stereo not shown) [3-Aminoisobutyric acid] — lower, -0.1018
- O=c1cc[nH]c(=O)[nH]1 [Uracil] — lower, -0.07123
- N[C@@H](Cc1c[nH]cn1)C(=O)O [L-Histidine] — within 0.2 log units, 0.05971
- O=C(O)[C@H]1O[C@H](OP(=O)(O)OP(=O)(O)OC[C@H]2O[C@@H](n3ccc(=O)[nH]c3=O)[C@H](O)[C@@H]2O)[C@H](O)[C@@H](O)[C@@H]1O [UDP-Glucuronate] — lower, -0.09562
- C[N+](C)(C)CC=O [Betaine aldehyde hydrate] — lower, -0.08887
- Nc1nc2nc[nH]c2c(=O)[nH]1 [Guanine] — within 0.2 log units, 0.2851
- O=P(O)(O)OC[C@H]1OC(O)[C@@H](O)[C@@H](O)[C@@H]1O (stereo partly drawn) [D-Mannose 6-phosphate] — lower, -0.1344
- CC(C)(COP(=O)(O)OP(=O)(O)OC[C@H]1O[C@@H](n2cnc3c(N)ncnc32)[C@H](O)[C@@H]1OP(=O)(O)O)[C@H](O)C(=O)NCCC(=O)NCCSC(=O)CCC(=O)O [Succinyl coenzyme A] — within 0.2 log units, 0.1384
- N[C@@H](Cc1ccc(O)c(O)c1)C(=O)O [3,4-Dihydroxy-L-phenylalanine] — higher, 0.5098
- O=c1[nH]c(=O)c2[nH]c(=O)[nH]c2[nH]1 [Uric acid] — lower, -0.09817
- O=Cc1cc(O)ccc1O [2,5-Dihydroxybenzaldehyde] — within 0.2 log units, 0.1295
- N[C@@H](CC(=O)O)C(=O)N[C@@H](Cc1ccccc1)C(=O)O [L-a-Aspartyl-L-phenylalanine] (H-Asp-Phe-OH) — lower, -0.1203
- O=C1CCNC(=O)N1 [Dihydrouracil] — lower, -0.08721
- O=c1[nH]c(=O)c2ncn([C@@H]3O[C@H](COP(=O)(O)O)[C@@H](O)[C@H]3O)c2[nH]1 [Xanthosine 5-monophosphate] — lower, -0.169
- CCC(=O)NCC(=O)O [Propionylglycine] — within 0.2 log units, 0.07527
- O=C(O)[C@@H]1CCC(O)=N1 [L-Pyroglutamic acid] — lower, -0.09309
- NC(=O)c1ncn([C@@H]2O[C@H](CO)[C@@H](O)[C@H]2O)c1N [AICAR] — within 0.2 log units, 0.005355
- C[C@H](CO)C(=O)O [(R)-Hydroxyisobutyrate] — within 0.2 log units, 0.07137
- N[C@@H](CC(=O)O)C(=O)O [L-Aspartate] — within 0.2 log units, 0.03257
- N[C@@H](CS)C(=O)O [L-Cysteine] — lower, -0.1221
- NCCCCCN [Cadaverine] — within 0.2 log units, 0.2219
- O=C[C@H](O)COP(=O)(O)O [D-Glyceraldehyde 3-phosphate] — within 0.2 log units, 0.09175
- Cc1cn([C@H]2C[C@H](O)[C@@H](CO)O2)c(=O)[nH]c1=O [Thymidine] — within 0.2 log units, 0.1162
- OC[C@H]1O[C@@](CO)(O[C@H]2O[C@H](CO)[C@@H](O)[C@H](O)[C@H]2O)[C@@H](O)[C@@H]1O [Sucrose] — lower, -0.3372
- Nc1nc2c(ncn2[C@H]2C[C@H](O)[C@@H](COP(=O)(O)O)O2)c(=O)[nH]1 [Deoxyguanylate] — within 0.2 log units, 0.08261
- C[N+](C)(C)CCO [Choline] — lower, -0.1774
- O=P(O)(O)O[C@@H]1[C@H](O)[C@H](O)[C@@H](OP(=O)(O)O)[C@H](OP(=O)(O)O)[C@H]1O [D-myo-Inositol-1,4,5-triphosphate] — within 0.2 log units, 0.2026
- O=C(O)c1cc(=O)[nH]c(=O)[nH]1 [Orotic acid] — within 0.2 log units, 0.07847
- CNCC(=O)O [Sarcosine] — lower, -0.1398
- O[C@@H]1[C@@H](O)[C@@H](O)CO[C@H]1O [L-Arabinose] — lower, -0.1354
- Cn1cnc(C[C@H](N)C(=O)O)c1 [1-Methyl-L-histidine] — lower, -0.1945
- NC(CCCC(=O)O)C(=O)O (stereo not shown) [2-Aminoadipic acid] — lower, -0.07731
- CC(=O)NCCc1c[nH]c2ccc(O)cc12 [N-Acetyl-5-hydroxytryptamine] — within 0.2 log units, 0.03423
- NC(=O)c1ccc[n+](C2OC(COP(=O)(O)OP(=O)(O)OCC3OC(n4cnc5c(=O)[nH]cnc54)C(O)C3O)C(O)C2O)c1 (stereo not shown) [Nicotinamide hypoxanthine dinucleotide] — within 0.2 log units, 0.06307
- N[C@H]1C(O)O[C@H](CO)[C@@H](O)[C@@H]1O (stereo partly drawn) [D-Glucosamine] — within 0.2 log units, 0.1378
- C[N+](C)(C)CC(O)CC(=O)[O-] (stereo not shown) [Carnitine] — lower, -0.03799
- CC(CC(=O)O)CC(=O)O [3-Methylglutaric acid] — lower, -0.09665
- N[C@@H](Cc1c[nH]c2ccc(O)cc12)C(=O)O [5-Hydroxy-L-tryptophan] — lower, -0.8537
- O=P(O)(O)OC[C@H]1O[C@H](OP(=O)(O)O)[C@H](O)[C@@H](O)[C@@H]1O [D-Glucose 1,6-bisphosphate] — lower, -0.7792
